Legend:
[1] = tested on: AMPK/mTORC1 signaling in MCF-7, MDA-MB-231, and MDA-MB-436 cells; assay: Western blot of AMPK/mTORC1 signaling; assay type: cell-based, human; conditions: western blot
Protocol: Cells were lysed in radioimmunoprecipitation assay buffer containing 50 mM Tris, pH 8.0, 150 mM NaCl, 0.1% SDS, 0.5% sodium deoxycholate, 1% NP-40, 1 mM DTT, 1 mM NaF, 1 mM sodium orthovanadate, 1 mM phenylmethylsulfonyl fluoride (PMSF; Sigma-Aldrich; Merck KGaA), and 1% protease inhibitors cocktail (EMD Millipore, Billerica, MA, USA). Protein concentration was determined using the Bradford method. Equal amounts of sample (25 µg) were separated by SDS-PAGE (8–12% gels). Electrophoresed proteins were then transferred onto polyvinylidene fluoride membranes (EMD Millipore, Billerica, MA, USA). The membranes were blocked with 5% skimmed milk in Tris-buffered saline at room temperature for 1 h. Following blocking, membranes were incubated overnight at 4°C with primary antibodies and then rinsed with Tris-buffered saline with Tween 20. The following primary antibodies were used: anti-Glut3 (1:500; catalog no. sc-74399) (Santa Cruz Biotechnology, Inc., Dallas, TX, USA); anti-LC3 (1:1000; catalog no. 12741), anti-AMPKα (1:1000; catalog no. 2532), anti-phospho-AMPKα (Thr172) (1:1000; catalog no. 2535), anti-phospho-AMPKβ1 (Ser108) (1:1000; catalog no. 4181), anti-AMPKγ1 (1:1000; catalog no. 4187), anti-mTOR (1:1000; catalog no. 2983), anti-phospho-mTOR (Ser2448) (1:1000; catalog no. 5536), anti-P70S6K (1:1000; catalog no. 9202), anti-phospho-P70S6K (Thr389) (1:1000; catalog no. 92775), anti-4E-BP1 (1:1000; catalog no. 9234), anti-phospho-4E-BP1 (Thr37/46) (1:1000; catalog no. 2855), anti-ACC (1:1000; catalog no. 3676), anti-phospho-ACC ([…]) (1:1000; catalog no. 11818), anti-Glut1 (1:1000; catalog no. 12939), anti-Glut4 (1:1000; catalog no. 2213) (All Cell Signaling Technology, Inc., Danvers, MA, USA), and anti-GAPDH (1:5000; catalog no. M20006; Abmart, Shanghai, China). Membranes were then washed, and incubated with horseradish peroxidase-conjugated secondary antibody (1:10000; E030120-01 and E030110-01; EarthOx, LLC, San Francisco, CA, USA) for 1.5 h at room temperature. The protein bands were visualized using SuperSignal® West Pico PLUS Chemiluminescent substrate (catalog no. 34579; Pierce; Thermo Fisher Scientific, Inc., Rockford, IL, USA) ([Zhang et al., 2018]).
Figure 3 Eth induces autophagy through the AMPK/mTORC1 signaling. (A): MCF-7, MDA-MB-231, or MDA-MB-436 cells were treated with increasing concentrations of Eth for 24 h. Western blot was performed using antibodies indicated. […] (D): MDA-MB-231 or MDA-MB-436 cells transfected with pQCXIP-GFP-LC3 plasmid were treated with Eth (2.0 µM) and/or CC (25 µM) for 24 h, and assessed by immunoﬂuorescence analyses. […] (G): MDA-MB-231 or MDA-MB-436 cells transfected with pQCXIP-GFP-LC3 plasmid were treated with Eth (1.0 µM or 1.6 µM) and/or Met (10 mM) for 24 h, and assessed by immunoﬂuorescence analyses. […]

AMPK = AMPK activity assay (CycLex kit) in treated cells; assay type: cell-based, human; conditions: MCF-7, MDA-MB-231, and MDA-MB-436 cells treated with Eth
Protocol: AMPK kinase activity was assay was performed by AMPK kinase activity kit which was purchased from CycLex Co., Ltd. (Cat#CY-1182). Absorbance was measured at 450 nm.
Next we determined whether Eth modulates the activity of the AMPK kinase. For this purpose, MCF-7, MDA-MB-231, and MDA-MB-436 cells were treated with Eth and incubated for different time periods (1, 6, 12, and 24 h).
Figure 4 Eth is a direct activator of AMPK. (A): MCF-7, MDA-MB-231, or MDA-MB-436 cells were treated with increasing concentrations of Eth for 24 h, and AMPK activity assay was performed. (B): The binding mode of Eth docked into AMPK. (C): The binding mode of Eth docked into AMPK. α subunit is green, β subunit is cyan, γ subunit is magenta and Eth is gold. (D): Details of the binding site of Eth in the ADaM site of AMPK. The main residues involved in drug interactions are shown as labeled green sticks. α subunit is green, β subunit is cyan. The pSER-108 was shown in stick and colored by gold. (E) The interaction pattern of Eth with the residues. (F): The 2D representation of the AMPK crystal structure in complex with Eth. (G): Chemical structure of Eth intermediate and Biotin-labeled Eth. (H): Viability of MCF-7, MDA-MB-231 or MDA-MB-436 cells exposed to Biotin-Eth as determined by MTT assay. […]

With `CCOC1c2c(ccc3c2OCO3)-c2ccc3cc4c(cc3c2N1C)OCO4` (stereo not drawn) [Eth, Ethoxysanguinarine] the “phosphorylation of mTORC1 effectors (mTOR, p70S6K, and 4EBP1)” value [1] was “decreased the phosphorylation of mTORC1 effectors”, the “phosphorylation of AMPKα at Thr172” value ([1]; dose- and time-dependent) was “increased” and the AMPK activity (AMPK) was “robust increase in AMPK activity”.

From article PMC6960228, “Ethoxysanguinarine, a Novel Direct Activator of AMP-Activated Protein Kinase, Induces Autophagy and Exhibits Therapeutic Potential in Breast Cancer Cells” (Frontiers in Pharmacology, 2020)
